Patent US11236087B2, “Highly active pyrazolo-piperidine substituted indole-2-carboxamides active against the hepatitis B virus (HBV)” (AiCuris GmbH & Co. KG, priority 2017, dated 2022)

Experiments:
[1] = Cell viability assay (AlamarBlue) in HepAD38 cells; conditions: human
[2] = system: HBV; experiment: Determination of HBV DNA from the supernatants of HepAD38 cells (anti-HBV activity); type: cell-based, hepatitis B virus; conditions: Hepatitis B virus, 144 h; HBV DNA in HepAD38 supernatant, day 6, qPCR; read-out: Cell Activity (EC50)
Method: Determination of HBV DNA from the Supernatants of HepAD38 Cells
The anti-HBV activity was analysed in the stable transfected cell line HepAD38, which has been described to secrete high levels of HBV virion particles (Ladner et al., 1997). In brief, HepAD38 cells were cultured at 37° C. at 5% CO2 and 95% humidity in 200 μl maintenance medium, which was Dulbecco's modified Eagle's medium/Nutrient Mixture F-12 (Gibco, Karlsruhe), 10% fetal bovine serum (PAN Biotech Aidenbach) supplemented with 50 μg/ml penicillin/streptomycin (Gibco, Karlsruhe), 2 mM L-glutamine (PAN Biotech, Aidenbach), 400 μg/ml G418 (AppliChem, Darmstadt) and 0.3 μg/ml tetracycline. Cells were subcultured once a week in a 1:5 ratio, but were usually not passaged more than ten times. For the assay 60,000 cells were seeded in maintenance medium without any tetracycline into each well of a 96-well plate and treated with serial half-log dilutions of test compound. To minimize edge effects the outer 36 wells of the plate were not used but were filled with assay medium. On each assay plate six wells for the virus control (untreated HepAD38 cells) and six wells for the cell control (HepAD38 cells treated with 0.3 μg/ml tetracycline) were allocated, respectively. In addition, one plate set with reference inhibitors like BAY 41-4109, entecavir, and lamivudine instead of screening compounds were prepared in each experiment. In general, experiments were performed thrice in triplicates. At day 6 HBV DNA from 100 μl filtrated cell culture supernatant (AcroPrep Advance 96 Filter Plate, […] Supor membran, PALL GmbH, Dreieich) was automatically purified on the MagNa Pure LC instrument using the MagNA Pure 96 DNA and Viral NA Small Volume Kit (Roche Diagnostics, Mannheim) according to the instructions of the manufacturer. EC50 values were calculated from relative copy numbers of HBV DNA In brief, 5 μl of the 100 μl eluate containing HBV DNA were subjected to PCR LC480 Probes Master Kit (Roche) together with 1 μM antisense primer […], 0.5 μM sense primer […], 0.3 μM hybprobes […]-FL and LC640-[…]-PH (TIBMoBiol, Berlin) to a final volume of 12.5 μl. The PCR was performed on the Light Cycler 480 real time system (Roche Diagnostics, Mannheim) using the following protocol: Pre-incubation for 1 min at 95° C., amplification: 40 cycles×(10 sec at 95° C., 50 sec at 60° C., 1 sec at 70° C.), cooling for 10 sec at 40° C. Viral load was quantitated against known standards using HBV plasmid DNA of pCH-9/3091 (Nassal et al., 1990, Cell 63: 1357-1363) and the LightCycler 480 SW 1.5 software (Roche Diagnostics, Mannheim) and EC50 values were calculated using non-linear regression with GraphPad Prism 6 (GraphPad Software Inc., La Jolla, USA).

SMILES	CC50 at 6 days [1] [µM]	EC50 [2] [µM]
O=C(NC1CC1)c1n[nH]c2c1CN(C(=O)c1cc3ccccc3[nH]1)CC2 [Example 220, N-cyclopropyl-5-(1H-indole-2-carbonyl)-1H,4H,5H,6H,7H-pyrazolo[4,3-c]pyridine-3-carboxamide]	> 10	1 to 25
CN(C(=O)c1n[nH]c2c1CN(C(=O)c1cc3ccccc3[nH]1)CC2)C1(c2ccccc2)CC1 [Example 221, 5-(1H-indole-2-carbonyl)-N-methyl-N-(1-phenylcyclopropyl)-1H,4H,5H,6H,7H-pyrazolo[4,3-c]pyridine-3-carboxamide]	> 10	< 1
O=C(c1cc2ccccc2[nH]1)N1CCc2[nH]nc(C(=O)N3CC(F)(F)C3)c2C1 [Example 222, 2-[3-(3,3-difluoroazetidine-1-carbonyl)-1H,4H,5H,6H,7H-pyrazolo[4,3-c]pyridine-5-carbonyl]-1H-indole]	> 10	< 1
O=C(c1cc2ccccc2[nH]1)N1CCc2[nH]nc(C(=O)N3CC(F)(F)C(F)(F)C3)c2C1 [Example 223, 2-[3-(3,3,4,4-tetrafluoropyrrolidine-1-carbonyl)-1H,4H,5H,6H,7H-pyrazolo[4,3-c]pyridine-5-carbonyl]-1H-indole]	> 10	1 to 25
O=C(c1cc2ccccc2[nH]1)N1CCc2[nH]nc(C(=O)N3CC[C@H](F)C3)c2C1 [Example 224, 2-{3-[(3S)-3-fluoropyrrolidine-1-carbonyl]-1H,4H,5H,6H,7H-pyrazolo[4,3-c]pyridine-5-carbonyl}-1H-indole]	> 10	< 1
O=C(c1cc2ccccc2[nH]1)N1CCc2[nH]nc(C(=O)N3CC[C@@H](F)C3)c2C1 [Example 225, 2-{3-[(3R)-3-fluoropyrrolidine-1-carbonyl]-1H,4H,5H,6H,7H-pyrazolo[4,3-c]pyridine-5-carbonyl}-1H-indole]	> 10	< 1
COC(=O)CC1(N(C)C(=O)c2n[nH]c3c2CN(C(=O)c2cc4ccccc4[nH]2)CC3)CC1 [Example 226, methyl 2-{1-[N-methyl 5-(1H-indole-2-carbonyl)-1H,4H,5H,6H,7H-pyrazolo[4,3-c]pyridine-3-amido]cyclopropyl}acetate]	> 10	1 to 25
CCc1cc(F)cc2[nH]c(C(=O)N3CCc4[nH]nc(C(=O)N5CCC(F)(F)C5)c4C3)cc12 [Example 227, 2-[3-(3,3-difluoropyrrolidine-1-carbonyl)-1H,4H,5H,6H,7H-pyrazolo[4,3-c]pyridine-5-carbonyl]-4-ethyl-6-fluoro-1H-indole]	> 10	< 1
CCc1cccc2[nH]c(C(=O)N3CCc4[nH]nc(C(=O)N5CCC(F)(F)C5)c4C3)cc12 [Example 228, 2-[3-(3,3-difluoropyrrolidine-1-carbonyl)-1H,4H,5H,6H,7H-pyrazolo[4,3-c]pyridine-5-carbonyl]-4-ethyl-1H-indole]	> 10	< 1
O=C(c1cc2c(Cl)cc(F)cc2[nH]1)N1CCc2[nH]nc(C(=O)N3CCC(F)(F)C3)c2C1 [Example 229, 4-chloro-2-[3-(3,3-difluoropyrrolidine-1-carbonyl)-1H,4H,5H,6H,7H-pyrazolo[4,3-c]pyridine-5-carbonyl]-6-fluoro-1H-indole]	> 10	< 1
O=C(c1cc2c(Cl)cccc2[nH]1)N1CCc2[nH]nc(C(=O)N3CCC(F)(F)C3)c2C1 [Example 230, 4-chloro-2-[3-(3,3-difluoropyrrolidine-1-carbonyl)-1H,4H,5H,6H,7H-pyrazolo[4,3-c]pyridine-5-carbonyl]-1H-indole]	> 10	< 1
O=C(c1cc2c(F)c(F)ccc2[nH]1)N1CCc2[nH]nc(C(=O)N3CCC(F)(F)C3)c2C1 [Example 231, 2-[3-(3,3-difluoropyrrolidine-1-carbonyl)-1H,4H,5H,6H,7H-pyrazolo[4,3-c]pyridine-5-carbonyl]-4,5-difluoro-1H-indole]	> 10	< 1
CC(=O)N1CCN(C(=O)c2[nH]nc3c2CN(C(=O)c2cc4ccccc4[nH]2)CC3)C2(CC2)C1 [Example 236, 1-{4-[5-(1H-indole-2-carbonyl)-2H,4H,5H,6H,7H-pyrazolo[4,3-c]pyridine-3-carbonyl]-4,7-diazaspiro[2.5]octan-7-yl}ethan-1-one]	> 10	1 to 25
CN(C(=O)c1n[nH]c2c1CN(C(=O)c1cc3ccccc3[nH]1)CC2)C1(CCC(N)=O)CC1 [Example 237, N-[1-(2-carbamoylethyl)cyclopropyl]-5-(1H-indole-2-carbonyl)-N-methyl-1H,4H,5H,6H,7H-pyrazolo[4,3-c]pyridine-3-carboxamide]	> 10	< 100
CN(C(=O)c1n[nH]c2c1CN(C(=O)c1cc3c(F)cc(F)cc3[nH]1)CC2)C1(CO)CC1 [Example 238, 5-(4,6-difluoro-1H-indole-2-carbonyl)-N-[1-(hydroxymethyl)cyclopropyl]-N-methyl-1H,4H,5H,6H,7H-pyrazolo[4,3-c]pyridine-3-carboxamide]	> 10	< 1
CN(C(=O)c1n[nH]c2c1CN(C(=O)c1cc3c(Cl)c(F)ccc3[nH]1)CC2)C1(CO)CC1 [Example 239, 5-(4-chloro-5-fluoro-1H-indole-2-carbonyl)-N-[1-(hydroxymethyl)cyclopropyl]-N-methyl-1H,4H,5H,6H,7H-pyrazolo[4,3-c]pyridine-3-carboxamide]	> 10	< 1
CN(C(=O)c1n[nH]c2c1CN(C(=O)c1cc3c(F)c(F)ccc3[nH]1)CC2)C1(CO)CC1 [Example 240, 5-(4,5-difluoro-1H-indole-2-carbonyl)-N-[1-(hydroxymethyl)cyclopropyl]-N-methyl-1H,4H,5H,6H,7H-pyrazolo[4,3-c]pyridine-3-carboxamide]	> 10	< 1
CN(C(=O)c1n[nH]c2c1CN(C(=O)c1cc3c(Cl)cc(F)cc3[nH]1)CC2)C1(CO)CC1 [Example 241, 5-(4-chloro-6-fluoro-1H-indole-2-carbonyl)-N-[1-(hydroxymethyl)cyclopropyl]-N-methyl-1H,4H,5H,6H,7H-pyrazolo[4,3-c]pyridine-3-carboxamide]	> 10	< 1
CN(C(=O)c1n[nH]c2c1CN(C(=O)c1cc3cc(F)c(Cl)cc3[nH]1)CC2)C1(CO)CC1 [Example 242, 5-(6-chloro-5-fluoro-1H-indole-2-carbonyl)-N-[1-(hydroxymethyl)cyclopropyl]-N-methyl-1H,4H,5H,6H,7H-pyrazolo[4,3-c]pyridine-3-carboxamide]	> 10	< 1
Cc1cc(F)cc2[nH]c(C(=O)N3CCc4[nH]nc(C(=O)N(C)C5(CO)CC5)c4C3)cc12 [Example 243, 5-(6-fluoro-4-methyl-1H-indole-2-carbonyl)-N-[1-(hydroxymethyl)cyclopropyl]-N-methyl-1H,4H,5H,6H,7H-pyrazolo[4,3-c]pyridine-3-carboxamide]	> 10	< 1
O=C(c1cc2ccccc2[nH]1)N1CCc2n[nH]c(C(=O)N3CCN(Cc4ccccc4)C4(CC4)C3)c2C1 [Example 257, 2-(3-{4-benzyl-4,7-diazaspiro[2.5]octane-7-carbonyl}-2H,4H,5H,6H,7H-pyrazolo[4,3-c]pyridine-5-carbonyl)-1H-indole]	> 10	1 to 25
